Laboratory results as given in patent publication US6509367B1 (priority 2001, dated 2003).
Entries after “also recorded” stand apart in the source; their conditions may differ. Where a name gives a salt, the structure may show the parent alone. Read-outs that look alike come from different tables or passages of the source. Marks after values point to notes of the source that are not given here.

What was measured:
mice [1] = details: cited from earlier work
mice [2] = details: cited from earlier work; remark: listed apart in the source
mice [3] = details: cited from earlier work; remark: listed apart in the source
mice [4] = assay: Rectal temperature (hypothermia) in mice, compound alone (agonism test); format: in vivo; details: for ED50: Mus musculus, iv
Procedure: (§1) Male ICR mice (25-32 g), purchased from Harlan (Dublin, Va.), were housed in groups of five. All animals were kept in a temperature-controlled (20-22° C.) environment with a 12-hour light-dark cycle (lights on at 7 a.m.). Separate mice were used for testing each drug dose in the in vivo behavioral procedures. The mice were maintained on a […] light: dark cycle, and received food and water ad libitum. Brain tissue for binding studies was obtained from male Sprague-Dawley rats (150-200 g) purchased from Harlan Laboratories (Dublin, Va.).
(§2) Measurement of spontaneous activity in mice occurred in standard activity chambers interfaced with a Digiscan Animal Activity Monitor (Omnitech Electronics, Inc., Columbus, Ohio). A standard tail-flick apparatus (described by Dewey et al., 1970) and a digital thermometer (Fisher Scientific, Pittsburgh, Pa.) were used to measure antinociception and rectal temperature, respectively.
(§3) All drugs were administered to the mice intravenously (i.v.) in the tail vein at a volume of 0.1 ml/10 g.
(§4) Maximum latency of 10 sec was used.

mice [5] = assay: Spontaneous (locomotor) activity in mice, compound alone (agonism test); format: in vivo; details: for inhibition in vivo at 30 mg/kg: read-out: Max % inhibit of spontaneous locomotor activity, Compound Alone; for change in vivo at 3 mg/kg: at 3 mg/kg i.v.; for stimulation of locomotor activity: compound alone, dose not given (see Table 5)
Procedure: as §1, §2, §3, §4

mice [6] = assay: Spontaneous activity in mice, compound in combination with 3 mg/kg Δ^9-THC (antagonism test); format: in vivo; details: for SA: maximum % antagonism of 3 mg/kg Δ^9-THC: analog 10 min before Δ^9-THC
Procedure: as §1, §2, §3, §4

mice [7] = assay: Agonism tests in mice, stated across the triad (spontaneous activity, tail flick, rectal temperature); details: compound alone, i.v. doses up to 30 mg/kg
CB1 receptor = CB1 receptor (Rattus norvegicus, UniProt P20272); assay: biochemical; format: binding; details: for Ki: 1 nM [3H] CP 55,940, rat whole brain P2 membranes, 30° C. for 1 hr
Procedure: as §1
All assays, as described briefly below, were performed in triplicate, and the results represent the combined data from three to six individual experiments. Following decapitation and rapid removal of the brain, whole brain was homogenized and centrifuged. The resulting pellet was termed P1. The supernatant was saved and combined with the two subsequent supernatants obtained from washing of the P1 pellet. The combined supernatant fractions were centrifuged, resulting in the P2 pellet. After further incubation and centrifuging, this pellet was resuspended in assay buffer to a protein concentration of approximately 2 mg/ml. The membrane preparation was quickly frozen in a bath solution of dry ice and 2-methylbutane (Sigma Chemical Co., St. Louis, Mo.), then stored at −80° C. for no more than 2 weeks. […] Binding was initiated by the addition of 150 μg of P2 membrane to test tubes containing 1 nM of [3H] […] Following incubation at 30° C. for 1 hr, binding was terminated by addition of ice-cold buffer and vacuum filtration through pretreated filters in a 12-well sampling manifold (Millipore, Bedford, Mass.). After washing, filters were placed into plastic scintillation vials (Packard, Downer Grove, Ill.) and shaken. The quantity of radioactivity present was determined by liquid scintillation spectrometry.

mice [8] = assay: Tail-flick antinociception in mice, compound alone (agonism test); format: in vivo; details: Mus musculus, iv
Procedure: as §1, §2, §3, §4

mice [9] = assay: Rectal temperature in mice, compound in combination with 3 mg/kg Δ^9-THC (antagonism test); format: in vivo
Procedure: as §1, §2, §3, §4

mice [10] = assay: Tail-flick antinociception in mice, compound in combination with 3 mg/kg Δ^9-THC (antagonism test); format: in vivo
Procedure: as §1, §2, §3, §4

mice [11] = assay: Antagonism tests with 3 mg/kg Δ^9-THC, stated across the measures (locomotor, antinociception, hypothermia)
[12] = 0.5 h, i.v., 30 min post-injection, 95% confidence limits in parentheses, read-out: RT (rectal temperature) ED50
[13] = Mus musculus, iv, at 30 mg/kg i.v.
[14] = Mus musculus, iv, mice, i.v., 95% confidence limits in parentheses, * = estimated ED50, dose-effect curve not linear, read-out: SA (suppression of spontaneous activity) ED50
[15] = at the dose(s) [mg/kg] given in parentheses in the cell
[16] = 20 min, i.v., 20 min post-injection, 95% confidence limits in parentheses, * = estimated ED50, dose-effect curve not linear, read-out: TF (tail flick, % MPE) ED50
[17] = Mus musculus, iv, read-out: Max stim of spontaneous locomotor activity, Compound Alone
[18] = read-out: TF: > dose, 50% activity not achieved at this highest dose tested
[19] = read-out: RT: > dose, 50% activity not achieved at this highest dose tested
[20] = Mus musculus, iv, mice, i.v., read-out: SA: > dose, 50% activity not achieved at this highest dose tested

CB1 receptor, sequence (P20272 whole entry): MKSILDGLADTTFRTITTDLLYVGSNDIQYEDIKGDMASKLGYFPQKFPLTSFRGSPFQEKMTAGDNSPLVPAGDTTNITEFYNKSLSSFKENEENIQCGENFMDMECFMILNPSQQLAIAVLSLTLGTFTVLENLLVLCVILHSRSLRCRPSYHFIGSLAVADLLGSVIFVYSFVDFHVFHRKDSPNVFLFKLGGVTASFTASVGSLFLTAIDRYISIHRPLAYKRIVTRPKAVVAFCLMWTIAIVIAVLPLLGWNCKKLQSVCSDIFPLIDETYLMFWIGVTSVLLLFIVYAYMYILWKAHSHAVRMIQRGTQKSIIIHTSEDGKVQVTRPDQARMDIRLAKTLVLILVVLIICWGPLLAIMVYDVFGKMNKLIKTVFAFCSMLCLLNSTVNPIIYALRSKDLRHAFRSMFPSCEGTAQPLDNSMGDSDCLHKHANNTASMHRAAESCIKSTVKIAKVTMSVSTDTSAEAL

CCCCCc1cc(O)c2c(c1)OC(C)(C)[C@@H]1CCC(C)=C[C@@H]21 [Δ^9-THC, Δ^9-tetrahydrocannabinol]
TF (tail flick, % MPE) ED50 (mice [1]; from Wiley et al., 1998): 2.7 µmol/kg
SA (suppression of spontaneous activity) ED50 (mice [2]; from Wiley et al., 1998): 0.92 µmol/kg
RT (rectal temperature) ED50 (mice [3]; from Wiley et al., 1998): 2.5 µmol/kg

CCCCCNC(=O)c1nn(-c2ccc(Cl)cc2Cl)c(-c2ccc(Cl)cc2)c1C [Compound O-1269, N-(n-pentyl)-5-(4-chlorophenyl)-1-(2,4-dichlorophenyl)-4-methyl-1H-pyrazole-3-carboxamide]
ED50 (mice [4]; [12]): 11 µmol/kg
change in vivo at 1 mg/kg (mice [5]; Mus musculus, iv, at 1 mg/kg i.v., read-out: Max stim of spontaneous locomotor activity, Compound Alone): 7%
inhibition in vivo at 30 mg/kg (mice [5]; [13]): 87%
ED50 (mice [5]; [14]): 11 µmol/kg
SA: maximum % antagonism of 3 mg/kg Δ^9-THC (mice [6]; at 3 mg/kg i.v.): 38% (3)
Max % inhibit of spontaneous locomotor activity, Compound with 3 mg/kg Δ^9-THC (mice [6]; at 10 mg/kg i.v.): 91% (10)
Max stim of spontaneous locomotor activity, Compound with 3 mg/kg Δ^9-THC (in words) (mice [6]; [15]): None (1, 3 & 10)
in vivo cannabinoid agonist activity (in words) (mice [7]): agonist activity
Ki (CB1 receptor; Ki (nM)): 32 ± 5 nM
ED50 (mice [8]; [16]): 21 µmol/kg
RT: maximum % antagonism of 3 mg/kg Δ^9-THC (mice [9]; at 1 mg/kg i.v.): 43% (1)
% MPE: maximum % antagonism of 3 mg/kg Δ^9-THC (mice [10]; at 3 mg/kg i.v.): 66% (3)

Cc1c(C(=O)NN2CCCCC2)nn(-c2ccc(Cl)cc2Cl)c1-c1ccc(Cl)cc1 [SR141716A, N-(piperidin-1-yl)-5-(4-chlorophenyl)-1-(2,4-dichlorophenyl)-4-methyl-1H-pyrazole-3-carboxamide hydrochloride, reference compound]
TF: > dose, 50% activity not achieved at this highest dose tested (mice [1]; from Compton et al., 1996): >30^c mg/kg
antagonism of locomotor suppressant, antinociceptive and hypothermic effects of Δ^9-THC (in words) (mice [11]; 3 mg/kg Δ^9-THC i.v.): fully antagonized
SA: > dose, 50% activity not achieved at this highest dose tested (mice [2]; from Compton et al., 1996): >30^c mg/kg
SA: maximum % antagonism of 3 mg/kg Δ^9-THC (mice [6]; at 3 mg/kg i.v.): 100% (3)
RT: > dose, 50% activity not achieved at this highest dose tested (mice [3]; from Compton et al., 1996): >30^c mg/kg
% MPE: maximum % antagonism of 3 mg/kg Δ^9-THC (mice [10]; at 0.1 mg/kg i.v.): 96% (0.1)

CCCCCCCNC(=O)c1nn(-c2ccc(Cl)cc2Cl)c(-c2ccc(Cl)cc2)c1C [Compound O-1270, N-(n-heptyl)-5-(4-chlorophenyl)-1-(2,4-dichlorophenyl)-4-methyl-1H-pyrazole-3-carboxamide]
ED50 (mice [4]; [12]): 12 µmol/kg
change in vivo at 3 mg/kg (mice [5]; [17]): 29%
inhibition in vivo at 30 mg/kg (mice [5]; [13]): 80%
ED50 (mice [5]; [14]): 27 µmol/kg
stimulation of locomotor activity (mice [5]): 29%
Max % inhibit of spontaneous locomotor activity, Compound with 3 mg/kg Δ^9-THC (mice [6]; at 10 mg/kg i.v.): 87% (10)
Max stim of spontaneous locomotor activity, Compound with 3 mg/kg Δ^9-THC (in words) (mice [6]; [15]): None (10)
SA: maximum % antagonism of 3 mg/kg Δ^9-THC (in words) (mice [6]; [15]): None (10)
in vivo cannabinoid agonist activity (in words) (mice [7]): agonist activity
Ki (CB1 receptor; Ki (nM)): 48 ± 12 nM
ED50 (mice [8]; [16]): 20 µmol/kg
RT: maximum % antagonism of 3 mg/kg Δ^9-THC (mice [9]; at 1 mg/kg i.v.): 26% (1)
% MPE: maximum % antagonism of 3 mg/kg Δ^9-THC (mice [10]; at 3 mg/kg i.v.): 37% (3)

CCCCCCCC(=O)c1nn(-c2ccc(Cl)cc2Cl)c(-c2ccc(Cl)cc2)c1C [Compound O-1272]
RT: maximal effect produced by the analog (change in rectal temperature) (mice [4]; i.v., at 30 mg/kg): −3 (30)^# ° C.
change in vivo at 3 mg/kg (mice [5]; [17]): 17%
inhibition in vivo at 30 mg/kg (mice [5]; [13]): 54%
SA: maximal effect produced by the analog (mice [5]; mice, i.v., at 30 mg/kg): 54% (30)^#
in vivo cannabinoid agonist activity (in words) (mice [7]): eliminated in vivo cannabimimetic activity
Ki (CB1 receptor; read-out: Ki): 221 ± 36 nM
ED50 (mice [8]; [18]): > 30 mg/kg

CCC(C)c1ccc(-n2nc(C(=O)NN3CCCCC3)c(C)c2-c2ccc(Cl)cc2)cc1 (stereo not drawn) [Compound O-1253]
antagonism of the antinociceptive and hypothermic effects of Δ^9-THC (in words) (mice [11]; 3 mg/kg Δ^9-THC i.v.): full, dose-dependent antagonism
ED50 (mice [4]; [19]): > 30 mg/kg
change in vivo at 30 mg/kg (mice [5]; Mus musculus, iv, at 30 mg/kg i.v., read-out: Max stim of spontaneous locomotor activity, Compound Alone): 73%
ED50 (mice [5]; [20]): > 30 mg/kg
Max % inhibit of spontaneous locomotor activity, Compound Alone (in words: stimulation instead of inhibition) (mice [5]; doses in mg/kg): stim at 1, 3, 10 & 30
Max % inhibit of spontaneous locomotor activity, Compound with 3 mg/kg Δ^9-THC (mice [6]; at 0.1 mg/kg i.v.): 89% (0.1)
SA: maximum % antagonism of 3 mg/kg Δ^9-THC (mice [6]; at 1 mg/kg i.v.): 97% (1)
Max stim of spontaneous locomotor activity, Compound with 3 mg/kg Δ^9-THC (mice [6]; at 10 mg/kg i.v.): 50% (10)
Ki (CB1 receptor; Ki (nM)): 47 ± 2 nM
CB1 binding affinity, fold less than SR 141716A (CB1 receptor; compared to SR 141716A): 8 fold
ED50 (mice [8]; [18]): > 30 mg/kg

CCCCCC(=O)c1nn(-c2ccc(Cl)cc2Cl)c(-c2ccc(Cl)cc2)c1C [Compound O-1271]
average % antagonism across the three measures (mice [11]; in combination with 3 mg/kg Δ^9-THC i.v.): 59%
ED50 (mice [4]; [19]): > 30 mg/kg
change in vivo at 3 mg/kg (mice [5]; [17]): 54%
inhibition in vivo at 30 mg/kg (mice [5]; [13]): 7%
ED50 (mice [5]; [20]): > 30 mg/kg
stimulation of locomotor activity (mice [5]): 54%
Max % inhibit of spontaneous locomotor activity, Compound with 3 mg/kg Δ^9-THC (mice [6]; at 3 mg/kg i.v.): 58% (3)
SA: maximum % antagonism of 3 mg/kg Δ^9-THC (mice [6]; at 10 mg/kg i.v.): 77% (10)
Max stim of spontaneous locomotor activity, Compound with 3 mg/kg Δ^9-THC (in words) (mice [6]; [15]): None (3 & 10)
in vivo cannabinoid agonist activity (in words) (mice [7]): eliminated in vivo cannabimimetic activity; also recorded: did not have agonist properties
Ki (CB1 receptor; Ki (nM)): 82 ± 10 nM
ED50 (mice [8]; [18]): > 30 mg/kg
RT: maximum % antagonism of 3 mg/kg Δ^9-THC (mice [9]; at 3 mg/kg i.v.): 36% (3)
% MPE: maximum % antagonism of 3 mg/kg Δ^9-THC (mice [10]; at 10 mg/kg i.v.): 65% (10)
